Measured values taken from the supplement of paper PMC10307832.

Tests used:
Assay in all cases: relative viability (nuclei count vs DMSO), 5 days (fraction); higher = more cells survive
Irinotecan + Phenformin = compound: CCc1c2c(nc3ccc(OC(=O)N4CCC(N5CCCCC5)CC4)cc13)-c1cc3c(c(=O)n1C2)COC(=O)[C@]3(O)CC [Irinotecan] + N=C(N)NC(=N)NCCc1ccccc1 [Phenformin] (partner 250 µM)
Outline: (§1)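 Each reported value is a median over duplicate plates. It expresses relative viability: treated-well nuclei count divided by vehicle-well nuclei count. Lung cancer cell lines in 1536-well plates were dosed by pin tool a day after seeding, alone with one drug or with a fixed anchor-drug dose plus five library-drug doses (not always all listed) in √10 steps, and nuclei were counted after 5 days.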

Irinotecan + Trametinib = compound: CCc1c2c(nc3ccc(OC(=O)N4CCC(N5CCCCC5)CC4)cc13)-c1cc3c(c(=O)n1C2)COC(=O)[C@]3(O)CC [Irinotecan] + CC(=O)Nc1cccc(-n2c(=O)n(C3CC3)c(=O)c3c(Nc4ccc(I)cc4F)n(C)c(=O)c(C)c32)c1 [Trametinib] (partner 0.02 µM)
Outline: as §1

RU-SKI 43 + OSI-027 = compound: CC[C@@H](C)CNCC(=O)N1CCC2=C([C@@H]1COC3=CC=CC(=C3)C)C=CS2 [RU-SKI 43] + COc1cccc2cc(-c3nc([C@H]4CC[C@H](C(=O)O)CC4)n4ncnc(N)c34)[nH]c12 [OSI-027] (partner 0.5 µM)
Outline: as §1

RU-SKI 43 + Dasatinib = compound: CC[C@@H](C)CNCC(=O)N1CCC2=C([C@@H]1COC3=CC=CC(=C3)C)C=CS2 [RU-SKI 43] + Cc1nc(Nc2ncc(C(=O)Nc3c(C)cccc3Cl)s2)cc(N2CCN(CCO)CC2)n1 [Dasatinib] (partner 0.075 µM)
Outline: as §1

Row | Cell Line | relative viability (Irinotecan + Phenformin; first compound 0.6325 µM) | relative viability (Irinotecan + Phenformin; first compound 2 µM) | relative viability (Irinotecan + Phenformin; first compound 6.325 µM) | relative viability (Irinotecan + Phenformin; first compound 20 µM) | relative viability (Irinotecan + Trametinib; first compound 0.6325 µM) | relative viability (Irinotecan + Trametinib; first compound 2 µM) | relative viability (Irinotecan + Trametinib; first compound 6.325 µM) | relative viability (Irinotecan + Trametinib; first compound 20 µM) | relative viability (RU-SKI 43 + OSI-027; first compound 0.1 µM) | relative viability (RU-SKI 43 + OSI-027; first compound 0.3162 µM) | relative viability (RU-SKI 43 + OSI-027; first compound 1 µM) | relative viability (RU-SKI 43 + OSI-027; first compound 3.162 µM) | relative viability (RU-SKI 43 + OSI-027; first compound 10 µM) | relative viability (RU-SKI 43 + Dasatinib; first compound 0.1 µM) | relative viability (RU-SKI 43 + Dasatinib; first compound 0.3162 µM) | relative viability (RU-SKI 43 + Dasatinib; first compound 1 µM) | relative viability (RU-SKI 43 + Dasatinib; first compound 3.162 µM) | relative viability (RU-SKI 43 + Dasatinib; first compound 10 µM)
1 | HCC-78 | 0.733 | 0.546 | 0.257 | 0.229 | 0.882 | 0.716 | 0.31 | 0.262 | 0.392 | 0.392 | 0.406 | 0.386 | 0.419 | 0.457 | 0.349 | 0.607 | 0.319 | 0.369
2 | NCI-H441 | 0.566 | 0.759 | 0.299 | 0.224 | 0.405 | 0.426 | 0.141 | 0.198 | 0.677 | 0.511 | 0.665 | 0.6 | 0.481 | 0.615 | 0.656 | 0.553 | 0.582 | 0.386
3 | LU99A | 0.369 | 0.37 | 0.208 | 0.301 | 0.184 | 0.182 | 0.164 | 0.156 | 0.298 | 0.282 | 0.314 | 0.309 | 0.317 | 0.486 | 0.614 | 0.602 | 0.587 | 0.599
4 | NCI-H1651 | 0.259 | 0.34 | 0.242 | 0.14 | 0.831 | 0.657 | 0.419 | 0.134 | 0.838 | 0.768 | 0.878 | 0.764 | 0.846 | 0.439 | 0.393 | 0.412 | 0.332 | 0.491
5 | HARA | 0.351 | 0.157 | 0.11 | 0.113 | 0.643 | 0.373 | 0.245 | 0.145 | 0.558 | 0.492 | 0.578 | 0.594 | 0.295 | 0.288 | 0.317 | 0.303 | 0.34 | 0.156
6 | RERF-LC-KJ | 0.47 | 0.325 | 0.345 | 0.246 | 0.869 | 0.63 | 0.433 | 0.282 | 0.505 | 0.514 | 0.603 | 0.56 | 0.548 | 0.788 | 0.938 | 0.992 | 0.771 | 0.704
7 | LCLC-103H | 0.344 | 0.358 | 0.256 | 0.321 | 0.655 | 0.603 | 0.463 | 0.479 | 0.512 | 0.576 | 0.567 | 0.486 | 0.56 | 0.502 | 0.481 | 0.64 | 0.453 | 0.49
8 | SK-LU-1 | 0.429 | 0.35 | 0.276 | 0.283 | 0.36 | 0.417 | 0.399 | 0.316 | 0.324 | 0.375 | 0.342 | 0.361 | 0.317 | 0.163 | 0.172 | 0.172 | 0.194 | 0.159
9 | NCI-H1648 |  |  |  |  | 0.441 | 0.383 | 0.299 | 0.323 |  |  | 0.255 | 0.251 | 0.221 |  |  |  |  | 
10 | NCI-H522 | 0.578 | 0.567 | 0.514 | 0.564 | 0.67 | 0.599 | 0.517 | 0.476 | 0.823 | 0.726 | 0.71 | 0.708 | 0.716 | 0.896 | 0.954 | 1.11 | 1.03 | 0.828
11 | LOU-NH91 | 0.617 | 0.639 | 0.377 | 0.391 | 0.774 | 0.768 | 0.466 | 0.29 | 0.752 | 0.642 | 0.74 | 0.774 | 0.728 | 0.553 | 0.604 | 0.624 | 0.581 | 0.554
12 | HCC-366 | 0.495 | 0.371 | 0.0734 | 0.078 | 0.266 | 0.184 | 0.0834 | 0.0768 | 0.962 | 0.94 | 1.02 | 0.931 | 0.452 | 0.61 | 0.955 | 0.715 | 0.698 | 0.476
13 | CAL-12T |  | 0.668 | 0.275 | 0.186 | 0.309 | 0.292 | 0.299 | 0.274 | 0.612 | 0.447 | 0.721 | 0.911 | 0.543 | 0.404 | 0.41 | 0.348 | 0.38 | 0.413
14 | PC-3 [JPC-3] | 0.424 | 0.472 | 0.318 | 0.349 | 0.671 | 0.811 | 0.534 | 0.358 | 0.682 | 0.862 | 0.797 | 0.804 | 0.366 | 1.07 | 1.09 | 0.973 | 0.968 | 0.939
15 | NCI-H2087 | 0.218 | 0.341 | 0.192 | 0.176 | 0.0883 | 0.151 | 0.137 | 0.196 | 0.666 | 0.56 | 0.705 | 0.563 | 0.516 | 0.998 | 1.48 | 0.866 | 0.938 | 0.943
